Earlier results on one substance are cited in US12165861B2, “Mass spectrometry method for measuring vitamin B6 in body fluid” (Quest Diagnostics Investments Incorporated, priority 2007, dated 2024).

vitamin B6: the “time to plasma peak” value (100 mg of vitamin B6, under normal conditions) was 2 h. The half-life (commonly how long it takes for the measured level to halve) (100 mg of vitamin B6, under normal conditions, plasma) is 8 h. Further, the “change in plasma PLP” value (doses of over 25 mg) is on record as “little change”.
